# Source: patent publication US20220089710A1, “Method of Treating Signs and Symptoms of Osteoarthritis” (Pfizer Inc., priority 2019, published 2022)
# Tested on: patients with moderate to severe OA of the hip or knee
# Test: Example 1: randomized, double-blind, placebo-controlled dose-titration study of SC tanezumab (16-week treatment), efficacy: WOMAC Pain, WOMAC Physical Function, PGA-OA, average daily index joint pain
# Assay type: in vivo, human
# Conditions: for PGA-OA: Diff of LS Means vs placebo / PGA-OA: LS Mean change from Baseline / WOMAC Pain: Diff of LS Means vs placebo / WOMAC Pain: LS Mean change from Baseline / WOMAC Physical Function: Diff of LS Means vs placebo / WOMAC Physical Function: LS Mean change from Baseline / proportion of patients with ≥50% reduction from baseline in WOMAC Pain subscale: Week 16
# Method: All patients provided written informed consent before participating. The study was conducted in compliance with the Declaration of Helsinki and all International Conference on Harmonisation Good Clinical Practice guidelines.
# The co-primary efficacy endpoints were change from baseline to week 16 in WOMAC Pain subscale, WOMAC Physical Function subscale, and PGA-OA (Theiler et al., Osteoarthritis Cartilage. 2002; 10(6):479-481; Stengaard-Pederson et al., Rheumatology (Oxford). 2004; 43(5):592-595). WOMAC Pain and WOMAC Physical Function subscales measured symptoms within the last 48 hours; both used an 11-point numeric rating scale where higher scores indicated higher levels of pain or worse function. For PGA-OA, patients answered the question “Considering all the ways your osteoarthritis in your hip/knee affects you, how are you doing today?” on a scale from 1=“very good” to 5=“very poor.”
# A key secondary efficacy endpoint was the WOMAC Pain […], responder rate at week 16. Other secondary efficacy endpoints were WOMAC Pain responder rates (≥30%, ≤70%, and ≤90%) at week 16 and patient-reported rescue medication use during weeks 2, 4, 8, 12, and 16.
# Individual patient transitions in WOMAC Pain response categories (non-response defined as <30% reduction in WOMAC Pain; moderate response as ≥30%, but <50% reduction in WOMAC Pain; and substantial response as […], reduction from baseline in WOMAC Pain) between adjacent time points through the study (from week 4 to week 8, from week 8 to week 12, and from week 12 to week 16), were investigated using contingency tables. These analyses were conducted post hoc. Consistent non-responders were those patients with less than a 30% reduction from baseline in WOMAC Pain at two consecutive time points. Consistent moderate responders were those patients with at least a 30% but less than 50% reduction from baseline in WOMAC Pain at two consecutive time points. Consistent substantial responders were those patients who maintained at least a 50% reduction from baseline in WOMAC Pain at two consecutive time points.
# Co-primary endpoints were analyzed in the intent-to-treat population (all patients who received ≥1 study medication dose) using an analysis of covariance model, with terms for baseline score, baseline patient diary average pain, index joint, Kellgren-Lawrence grade, and treatment group, and study site as a random effect. Missing data were handled with a multiple imputation strategy dependent on the reason for discontinuation.
# Comparisons for other secondary endpoints were unadjusted. […] Safety assessments were summarized by treatment group as percentages of the treatment group population.
substance,measurement,setting,value
tanezumab: humanized immunoglobulin G Type 2 (IgG2) monoclonal antibody directed against human nerve growth factor (NGF); SEQ ID NOs: 9 or 11 and 10,PGA-OA: Diff of LS Means vs placebo,2.5 mg SC,−0.22
same,PGA-OA: LS Mean change from Baseline,2.5 mg SC,−0.87
same,WOMAC Pain: Diff of LS Means vs placebo,2.5 mg SC,−0.60
same,WOMAC Pain: LS Mean change from Baseline,2.5 mg SC,−3.23
same,WOMAC Physical Function: Diff of LS Means vs placebo,2.5 mg SC,−0.66
same,WOMAC Physical Function: LS Mean change from Baseline,2.5 mg SC,−3.22
same,proportion of patients with ≥50% reduction from baseline in WOMAC Pain subscale,2.5 mg SC,54.5%
same,week 8 non-responders (<30% reduction in WOMAC Pain) transitioning to a moderate response at week 12,2.5 mg group (10/88),11.4%
same,week 8 non-responders (<30% reduction in WOMAC Pain) transitioning to a substantial response at week 12,2.5 mg group (14/88),15.9%
same,patients maintaining a moderate or substantial response from week 8 to week 12,2.5 mg group (138/231),59.7%
same,PGA-OA: Diff of LS Means vs placebo,2.5/5 mg SC,−0.25
same,PGA-OA: LS Mean change from Baseline,2.5/5 mg SC,−0.90
same,WOMAC Pain: Diff of LS Means vs placebo,2.5/5 mg SC,−0.73
same,WOMAC Pain: LS Mean change from Baseline,2.5/5 mg SC,−3.37
same,WOMAC Physical Function: Diff of LS Means vs placebo,2.5/5 mg SC,−0.89
same,WOMAC Physical Function: LS Mean change from Baseline,2.5/5 mg SC,−3.45
same,proportion of patients with ≥50% reduction from baseline in WOMAC Pain subscale,2.5/5 mg SC,57.1%
same,week 8 non-responders (<30% reduction in WOMAC Pain) transitioning to a substantial response at week 12,2.5/5 mg group (17/90),18.9%
same,week 8 non-responders (<30% reduction in WOMAC Pain) transitioning to a moderate response at week 12,2.5/5 mg group (20/90),22.2%
same,patients maintaining a moderate or substantial response from week 8 to week 12,2.5/5 mg group (138/233),59.2%
